Measurements as given in publication PMC4508061, “Selectivity Profiling and Biological Activity of Novel β-Carbolines as Potent and Selective DYRK1 Kinase Inhibitors” (PLoS ONE, 2015).

Tests used:
[1] = molecular target: RPS6KA4 (Homo sapiens, UniProt O75676); assay: ProQinase radiometric kinase panel; details: mean of 2 exp.
[2] = molecular target: ACV-RL1 (Homo sapiens, UniProt P37023); assay: ProQinase radiometric kinase panel; details: mean of 2 exp.
[3] = molecular target: TSSK1 (Homo sapiens, UniProt Q9BXA7); assay: ProQinase radiometric kinase panel; details: mean of 2 exp.
Chain of TSSK1 (Q9BXA7 whole entry): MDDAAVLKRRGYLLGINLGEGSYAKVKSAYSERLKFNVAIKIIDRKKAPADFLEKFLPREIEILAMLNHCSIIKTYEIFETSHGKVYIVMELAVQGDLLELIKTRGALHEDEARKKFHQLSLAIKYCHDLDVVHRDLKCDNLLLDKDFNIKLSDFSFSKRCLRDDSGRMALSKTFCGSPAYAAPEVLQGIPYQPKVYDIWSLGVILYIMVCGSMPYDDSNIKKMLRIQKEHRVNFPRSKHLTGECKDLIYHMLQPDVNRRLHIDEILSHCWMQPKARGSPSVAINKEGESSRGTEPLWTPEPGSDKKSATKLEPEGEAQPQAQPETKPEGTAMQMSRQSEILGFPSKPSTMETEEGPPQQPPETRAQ

[4] = molecular target: ROS (Homo sapiens, UniProt P08922); assay: ProQinase radiometric kinase panel; details: mean of 2 exp.
[5] = molecular target: PDK1 (Homo sapiens, UniProt O15530); assay: ProQinase radiometric kinase panel; details: mean of 2 exp.
[6] = molecular target: CAMK1D (Homo sapiens, UniProt Q8IU85); assay: ProQinase radiometric kinase panel; details: mean of 2 exp.
[7] = molecular target: RIPK2 (Homo sapiens, UniProt O43353); assay: ProQinase radiometric kinase panel; details: mean of 2 exp.
[8] = molecular target: JNK2 (Homo sapiens, UniProt P45984); assay: ProQinase radiometric kinase panel; details: mean of 2 exp.
Chain of JNK2 (P45984 whole entry): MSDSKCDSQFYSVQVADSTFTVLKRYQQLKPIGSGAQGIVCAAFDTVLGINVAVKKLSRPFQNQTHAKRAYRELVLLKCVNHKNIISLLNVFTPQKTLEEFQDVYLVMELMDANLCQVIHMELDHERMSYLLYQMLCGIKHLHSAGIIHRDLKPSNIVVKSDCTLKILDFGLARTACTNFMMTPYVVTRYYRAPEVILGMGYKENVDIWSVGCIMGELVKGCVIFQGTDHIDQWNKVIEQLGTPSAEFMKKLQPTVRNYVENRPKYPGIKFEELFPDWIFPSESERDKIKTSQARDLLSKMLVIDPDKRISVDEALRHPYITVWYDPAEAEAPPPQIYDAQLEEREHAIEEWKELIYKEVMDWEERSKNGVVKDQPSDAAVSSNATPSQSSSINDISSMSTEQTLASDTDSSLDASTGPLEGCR
Experimental: Gini coefficients were calculated and the Lorenz curve (Fig 3B) was plotted by applying the Microsoft Excel spreadsheet provided by Graczyk [44].
radiometric protein kinase assays.

[9] = molecular target: MKNK2 (Homo sapiens, UniProt Q9HBH9); assay: ProQinase radiometric kinase panel; details: mean of 2 exp.
[10] = molecular target: PHKG1 (Homo sapiens, UniProt Q16816); assay: ProQinase radiometric kinase panel; details: mean of 2 exp.
[11] = molecular target: LIMK2 (Homo sapiens, UniProt P53671); assay: ProQinase radiometric kinase panel; details: mean of 2 exp.
[12] = molecular target: TAOK2 (Homo sapiens, UniProt Q9UL54); assay: ProQinase radiometric kinase panel; details: mean of 2 exp.
Chain of TAOK2 (Q9UL54 whole entry): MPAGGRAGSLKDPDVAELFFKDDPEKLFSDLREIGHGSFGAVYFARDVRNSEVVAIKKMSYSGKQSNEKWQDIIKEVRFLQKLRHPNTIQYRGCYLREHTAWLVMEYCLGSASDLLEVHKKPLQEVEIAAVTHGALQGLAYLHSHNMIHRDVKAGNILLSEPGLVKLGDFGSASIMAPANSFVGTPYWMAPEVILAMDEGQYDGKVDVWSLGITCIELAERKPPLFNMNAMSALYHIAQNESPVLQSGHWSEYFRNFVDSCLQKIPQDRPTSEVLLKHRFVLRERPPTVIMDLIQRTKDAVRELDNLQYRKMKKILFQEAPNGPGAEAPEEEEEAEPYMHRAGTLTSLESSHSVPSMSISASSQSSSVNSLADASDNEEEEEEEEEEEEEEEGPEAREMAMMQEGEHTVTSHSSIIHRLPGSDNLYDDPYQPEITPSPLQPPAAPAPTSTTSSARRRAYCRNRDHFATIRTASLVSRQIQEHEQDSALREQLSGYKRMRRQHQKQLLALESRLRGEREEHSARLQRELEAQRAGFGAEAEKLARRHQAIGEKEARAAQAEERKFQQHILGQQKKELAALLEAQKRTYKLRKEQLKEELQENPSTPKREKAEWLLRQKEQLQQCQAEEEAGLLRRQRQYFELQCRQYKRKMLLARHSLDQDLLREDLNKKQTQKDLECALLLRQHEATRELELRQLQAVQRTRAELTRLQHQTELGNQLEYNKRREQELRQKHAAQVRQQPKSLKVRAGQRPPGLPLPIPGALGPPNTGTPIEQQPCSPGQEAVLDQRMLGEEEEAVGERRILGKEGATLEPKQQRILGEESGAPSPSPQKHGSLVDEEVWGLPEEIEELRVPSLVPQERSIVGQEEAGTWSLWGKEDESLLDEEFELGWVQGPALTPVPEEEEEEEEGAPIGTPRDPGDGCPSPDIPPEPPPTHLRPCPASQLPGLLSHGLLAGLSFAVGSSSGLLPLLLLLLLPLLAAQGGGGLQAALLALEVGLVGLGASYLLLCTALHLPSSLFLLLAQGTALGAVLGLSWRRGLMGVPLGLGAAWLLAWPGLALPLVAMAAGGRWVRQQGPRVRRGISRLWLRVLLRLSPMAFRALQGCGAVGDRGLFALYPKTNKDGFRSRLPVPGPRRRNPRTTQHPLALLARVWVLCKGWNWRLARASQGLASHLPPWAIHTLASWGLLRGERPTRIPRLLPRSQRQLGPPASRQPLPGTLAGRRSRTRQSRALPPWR

[13] = molecular target: MAPKAPK2 (Homo sapiens, UniProt P49137); assay: ProQinase radiometric kinase panel; details: mean of 2 exp.
[14] = molecular target: IKK-beta (Homo sapiens, UniProt O14920); assay: ProQinase radiometric kinase panel; details: mean of 2 exp.
[15] = molecular target: STK23 (Homo sapiens, UniProt Q9UPE1); assay: ProQinase radiometric kinase panel; details: mean of 2 exp.
Chain of STK23 (Q9UPE1 whole entry): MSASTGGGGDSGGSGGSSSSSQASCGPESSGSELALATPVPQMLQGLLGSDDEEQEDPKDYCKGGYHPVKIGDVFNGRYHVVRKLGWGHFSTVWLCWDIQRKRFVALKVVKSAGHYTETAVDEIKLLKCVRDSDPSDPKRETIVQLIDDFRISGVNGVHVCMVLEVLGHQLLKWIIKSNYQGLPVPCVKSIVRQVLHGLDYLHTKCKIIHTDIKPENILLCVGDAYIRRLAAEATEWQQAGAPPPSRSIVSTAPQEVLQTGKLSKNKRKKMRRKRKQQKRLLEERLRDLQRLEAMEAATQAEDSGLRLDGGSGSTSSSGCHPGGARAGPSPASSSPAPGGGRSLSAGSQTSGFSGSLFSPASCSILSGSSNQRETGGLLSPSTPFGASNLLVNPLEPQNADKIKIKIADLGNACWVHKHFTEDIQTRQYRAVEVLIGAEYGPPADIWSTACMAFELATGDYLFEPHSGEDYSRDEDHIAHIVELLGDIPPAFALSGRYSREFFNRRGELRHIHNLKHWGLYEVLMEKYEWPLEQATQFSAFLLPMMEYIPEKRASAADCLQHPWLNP

[16] = molecular target: HRI (Homo sapiens, UniProt Q9BQI3); assay: ProQinase radiometric kinase panel; details: mean of 2 exp.
Chain of HRI (Q9BQI3 whole entry): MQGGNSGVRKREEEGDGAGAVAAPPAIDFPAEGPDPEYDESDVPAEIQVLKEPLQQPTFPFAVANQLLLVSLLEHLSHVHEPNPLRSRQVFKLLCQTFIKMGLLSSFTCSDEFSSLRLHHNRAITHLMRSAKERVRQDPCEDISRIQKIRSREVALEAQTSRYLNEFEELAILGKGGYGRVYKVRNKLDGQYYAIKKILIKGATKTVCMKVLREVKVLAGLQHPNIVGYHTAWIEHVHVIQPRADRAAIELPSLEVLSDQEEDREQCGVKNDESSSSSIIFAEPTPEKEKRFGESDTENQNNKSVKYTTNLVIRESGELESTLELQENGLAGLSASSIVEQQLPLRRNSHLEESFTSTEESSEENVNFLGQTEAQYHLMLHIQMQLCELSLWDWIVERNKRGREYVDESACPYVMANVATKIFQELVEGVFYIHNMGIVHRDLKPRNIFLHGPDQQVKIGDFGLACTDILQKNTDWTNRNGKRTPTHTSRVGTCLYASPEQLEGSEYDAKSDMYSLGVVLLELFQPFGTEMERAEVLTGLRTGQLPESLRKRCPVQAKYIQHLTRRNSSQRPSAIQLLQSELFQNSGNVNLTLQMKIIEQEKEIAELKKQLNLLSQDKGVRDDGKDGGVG

[17] = molecular target: NEK6 (Homo sapiens, UniProt Q9HC98); assay: ProQinase radiometric kinase panel; details: mean of 2 exp.
[18] = molecular target: NEK4 (Homo sapiens, UniProt P51957); assay: ProQinase radiometric kinase panel; details: mean of 2 exp.
Chain of NEK4 (P51957 whole entry): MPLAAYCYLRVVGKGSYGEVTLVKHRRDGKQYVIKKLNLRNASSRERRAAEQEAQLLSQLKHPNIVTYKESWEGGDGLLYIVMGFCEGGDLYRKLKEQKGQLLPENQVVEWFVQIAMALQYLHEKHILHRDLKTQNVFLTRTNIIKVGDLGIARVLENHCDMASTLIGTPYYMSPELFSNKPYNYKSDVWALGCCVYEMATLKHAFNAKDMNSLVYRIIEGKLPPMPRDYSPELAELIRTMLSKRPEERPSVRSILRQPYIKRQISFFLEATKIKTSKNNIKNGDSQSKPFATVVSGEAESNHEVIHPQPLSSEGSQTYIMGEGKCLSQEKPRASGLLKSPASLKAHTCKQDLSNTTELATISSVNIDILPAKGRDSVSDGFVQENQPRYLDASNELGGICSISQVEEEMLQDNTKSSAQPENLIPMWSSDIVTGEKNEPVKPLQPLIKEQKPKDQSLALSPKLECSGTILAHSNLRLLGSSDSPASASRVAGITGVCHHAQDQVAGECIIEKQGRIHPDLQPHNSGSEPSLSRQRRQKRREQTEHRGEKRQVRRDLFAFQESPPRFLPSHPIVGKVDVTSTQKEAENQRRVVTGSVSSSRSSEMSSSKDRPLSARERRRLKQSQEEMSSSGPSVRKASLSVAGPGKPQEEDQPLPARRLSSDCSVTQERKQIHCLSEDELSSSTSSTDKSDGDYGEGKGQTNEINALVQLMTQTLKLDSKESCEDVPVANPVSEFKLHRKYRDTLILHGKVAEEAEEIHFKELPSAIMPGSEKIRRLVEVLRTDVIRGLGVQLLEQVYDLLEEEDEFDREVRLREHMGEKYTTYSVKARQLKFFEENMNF

[19] = molecular target: CK1-gamma3 (Homo sapiens, UniProt Q9Y6M4); assay: ProQinase radiometric kinase panel; details: mean of 2 exp.
[20] = molecular target: MST1 (Homo sapiens, UniProt Q13043); assay: ProQinase radiometric kinase panel; details: mean of 2 exp.
Chain of MST1 (Q13043 whole entry): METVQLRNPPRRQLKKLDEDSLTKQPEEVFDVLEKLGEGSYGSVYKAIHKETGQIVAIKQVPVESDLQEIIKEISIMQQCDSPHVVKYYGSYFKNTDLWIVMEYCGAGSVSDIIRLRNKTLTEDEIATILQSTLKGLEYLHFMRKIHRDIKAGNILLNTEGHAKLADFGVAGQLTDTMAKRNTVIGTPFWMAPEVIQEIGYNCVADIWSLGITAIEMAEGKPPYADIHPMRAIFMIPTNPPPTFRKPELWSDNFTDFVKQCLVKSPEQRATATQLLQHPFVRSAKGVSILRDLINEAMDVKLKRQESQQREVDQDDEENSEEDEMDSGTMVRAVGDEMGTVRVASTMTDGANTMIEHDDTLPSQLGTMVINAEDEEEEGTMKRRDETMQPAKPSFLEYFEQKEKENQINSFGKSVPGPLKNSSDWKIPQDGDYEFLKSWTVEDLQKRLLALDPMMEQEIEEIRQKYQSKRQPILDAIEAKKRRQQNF

[21] = molecular target: PBK (Homo sapiens, UniProt Q96KB5); assay: ProQinase radiometric kinase panel; details: mean of 2 exp.
[22] = molecular target: MEKK2 (Homo sapiens, UniProt Q9Y2U5); assay: ProQinase radiometric kinase panel; details: mean of 2 exp.
[23] = molecular target: PKC-beta1 (Homo sapiens, UniProt P05771); assay: ProQinase radiometric kinase panel; details: mean of 2 exp.
[24] = molecular target: GRK2 (Homo sapiens, UniProt P25098); assay: ProQinase radiometric kinase panel; details: mean of 2 exp.
[25] = molecular target: Aurora-B (Homo sapiens, UniProt Q96GD4); assay: ProQinase radiometric kinase panel; details: mean of 2 exp.
[26] = Cell viability XTT assay; format: cell-based; details: human, SH-SY5Y cells, read-out: Viability of treated cells relative to untreated control
[27] = molecular target: CDK4/CycD3 (Homo sapiens, UniProt P11802); assay: ProQinase radiometric kinase panel; details: mean of 2 exp.
[28] = molecular target: p38-gamma (Homo sapiens, UniProt P53778); assay: ProQinase radiometric kinase panel; details: mean of 2 exp.
[29] = molecular target: Aurora-A (Homo sapiens, UniProt O14965); assay: ProQinase radiometric kinase panel; details: mean of 2 exp.
Chain of Aurora-A (O14965 whole entry): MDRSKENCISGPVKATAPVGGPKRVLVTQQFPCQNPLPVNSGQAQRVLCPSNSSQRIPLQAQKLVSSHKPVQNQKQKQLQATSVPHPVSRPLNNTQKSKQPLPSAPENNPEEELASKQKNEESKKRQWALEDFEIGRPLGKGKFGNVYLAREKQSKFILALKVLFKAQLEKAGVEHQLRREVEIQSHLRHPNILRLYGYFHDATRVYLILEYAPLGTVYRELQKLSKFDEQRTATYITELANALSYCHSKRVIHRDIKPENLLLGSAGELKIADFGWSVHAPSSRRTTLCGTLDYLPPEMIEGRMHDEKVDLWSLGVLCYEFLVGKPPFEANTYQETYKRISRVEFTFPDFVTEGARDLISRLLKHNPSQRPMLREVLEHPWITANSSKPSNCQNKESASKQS

[30] = molecular target: MYLK (Homo sapiens, UniProt Q15746); assay: ProQinase radiometric kinase panel; details: mean of 2 exp.
[31] = molecular target: ASK1 (Homo sapiens, UniProt Q99683); assay: ProQinase radiometric kinase panel; details: mean of 2 exp.
[32] = molecular target: CDK1/CycA2 (Homo sapiens, UniProt P06493); assay: ProQinase radiometric kinase panel; details: mean of 2 exp.
[33] = molecular target: TAOK3 (Homo sapiens, UniProt Q9H2K8); assay: ProQinase radiometric kinase panel; details: mean of 2 exp.
[34] = molecular target: PIM1 (Homo sapiens, UniProt P11309); assay: ProQinase radiometric kinase panel; details: mean of 2 exp.
[35] = molecular target: VEGF-R3 (Homo sapiens, UniProt P35916); assay: ProQinase radiometric kinase panel; details: mean of 2 exp.
[36] = molecular target: TXK (Homo sapiens, UniProt P42681); assay: ProQinase radiometric kinase panel; details: mean of 2 exp.
[37] = molecular target: SGK2 (Homo sapiens, UniProt Q9HBY8); assay: ProQinase radiometric kinase panel; details: mean of 2 exp.
[38] = molecular target: SNK (Homo sapiens, UniProt Q9NYY3); assay: ProQinase radiometric kinase panel; details: mean of 2 exp.
[39] = molecular target: SLK (Homo sapiens, UniProt Q9H2G2); assay: ProQinase radiometric kinase panel; details: mean of 2 exp.

- residual activity at 1 µM, Mean [1]: 95 % of control
- residual activity at 1 µM, Mean [2]: 91 % of control
- residual activity at 1 µM, Mean [3]: 85 % of control
- residual activity at 1 µM, Mean [4]: 94 % of control
- residual activity at 1 µM, Mean [5]: 99 % of control
- residual activity at 1 µM, Mean [6]: 102 % of control
- residual activity at 1 µM, Mean [7]: 94 % of control
- residual activity at 1 µM, Mean [8]: 100 % of control
- residual activity at 1 µM, Mean [9]: 92 % of control
- residual activity at 1 µM, Mean [10]: 91 % of control
- residual activity at 1 µM, Mean [11]: 94 % of control
- residual activity at 1 µM, Mean [12]: 98 % of control
- residual activity at 1 µM, Mean [13]: 85 % of control
- residual activity at 1 µM, Mean [14]: 91 % of control
- residual activity at 1 µM, Mean [15]: 93 % of control
- residual activity at 1 µM, Mean [16]: 101 % of control
- residual activity at 1 µM, Mean [17]: 104 % of control
- residual activity at 1 µM, Mean [18]: 98 % of control
- residual activity at 1 µM, Mean [19]: 93 % of control
- residual activity at 1 µM, Mean [20]: 91 % of control
- residual activity at 1 µM, Mean [21]: 94 % of control
- residual activity at 1 µM, Mean [22]: 105 % of control
- residual activity at 1 µM, Mean [23]: 93 % of control
- residual activity at 1 µM, Mean [24]: 92 % of control
- residual activity at 1 µM, Mean [25]: 104 % of control
- residual activity at 1 µM, Mean [27]: 89 % of control
- residual activity at 1 µM, Mean [28]: 86 % of control
- residual activity at 1 µM, Mean [29]: 89 % of control
- residual activity at 1 µM, Mean [30]: 92 % of control
- residual activity at 1 µM, Mean [31]: 104 % of control
- residual activity at 1 µM, Mean [32]: 79 % of control
- residual activity at 1 µM, Mean [33]: 103 % of control
- residual activity at 1 µM, Mean [34]: 41 % of control
- residual activity at 1 µM, Mean [35]: 93 % of control
- residual activity at 1 µM, Mean [36]: 94 % of control
- residual activity at 1 µM, Mean [37]: 99 % of control
- residual activity at 1 µM, Mean [38]: 92 % of control
- residual activity at 1 µM, Mean [39]: 99 % of control
SMILES: COc1ccc2c3ccnc(Cl)c3n(CC#N)c2c1 [AnnH75]
- viability at 3 days, 1 µM ([26]; 1 μM): 89%
- viability at 3 days, 3 µM ([26]; 3 μM): 73%
